The compounds below were run against T1, MCH receptor (Homo sapiens, UniProt Q99705) (assay: MCH Receptor Binding Assay). Details: Binding Activity; membranes from CHO cells expressing the MCH receptor, [125I]-MCH; read-out: MCH Ki.
T1 construct: expressed in transfected cells; host or cells: CHO cells (membranes)
T1 sequence (Q99705 whole entry): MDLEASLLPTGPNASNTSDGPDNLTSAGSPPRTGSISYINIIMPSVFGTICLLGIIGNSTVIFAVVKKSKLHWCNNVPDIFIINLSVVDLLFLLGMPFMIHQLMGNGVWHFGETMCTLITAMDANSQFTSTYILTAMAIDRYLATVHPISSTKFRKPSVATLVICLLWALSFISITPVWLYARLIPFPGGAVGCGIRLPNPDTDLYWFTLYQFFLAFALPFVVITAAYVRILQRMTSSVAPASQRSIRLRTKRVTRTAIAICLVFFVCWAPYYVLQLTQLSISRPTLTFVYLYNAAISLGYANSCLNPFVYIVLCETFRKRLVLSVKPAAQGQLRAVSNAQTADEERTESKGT
Experimental: MCH Receptor Binding Assay:
Membranes from CHO cells expressing the MCH receptor were prepared by lysing cells with 5 mM HEPES for 15 min at 4C. Cell lysates were centrifuged ([…], 15 min) and the pellet was resuspended in 5 mM HEPES. For each 96-well plate (Microlite, Dynex Technologies), 1 mg of cell membranes were incubated with 10 mg of wheat germ agglutinin SPA beads (Amersham) for 5 min at 4 C. in a volume of 10 ml of binding buffer (25 mM HEPES, 10 mM MGCl2, 10 mM NaCl, 5 mM MnCl2, 0.1% BSA). The membrane/bead mixture was centrifuged (1500×g, 3.5 min), the supernatant was aspirated, and the pellet was resuspended in 10 ml binding buffer. The centrifugation, aspiration and resuspension were then repeated. […] Nonspecific binding was determined by including 1 μM MCH in the binding reaction. The binding reaction was incubated at room temperature for 2 h. Plates were then analyzed in a TOPCOUNT microplate scintillation counter (Packard). Data was analyzed and Ki values were determined using GraphPad Prim.
`N#Cc1cccc([C@]23CC[C@@H](N(CCCCN4CCCCC4)C(=O)Nc4ccc(F)c(C(F)(F)F)c4)[C@H]2C3)c1` [Example 227] showed a Ki of 1.6 nM.

Same assay, conditions: Table 1b, preferred compounds; read-out: MCH R1 Ki
`N#Cc1cccc([C@]23CC[C@@H](N(CCN4CC[C@@H](O)C4)C(=O)Nc4ccc(F)c(C(F)(F)F)c4)[C@H]2C3)c1` [drawing 636] was tested, and the Ki was 11 nM.
`N#Cc1cccc([C@@]23CC[C@@H](N(CCCN4CC[C@@H](O)C4)C(=O)Nc4ccc(F)c(Cl)c4)CC2C3)c1` (stereo partly shown) [drawing 646] gave a Ki of 3 nM.
For `N#Cc1cccc([C@@]23CC[C@@H](N(CCN4CC[C@@H](O)C4)C(=O)Nc4ccc(F)c(C(F)(F)F)c4)CC2C3)c1` (stereo partly shown) [drawing 651], the Ki was 6.2 nM.
`N#Cc1cccc([C@@]23CC[C@@H](N(CCN4CC[C@@H](O)C4)C(=O)Nc4ccc(F)c(C(F)(F)F)c4)CC2C3)c1` (stereo partly shown) [drawing 655] was tested, and the Ki was 16 nM.
With `N#Cc1cccc([C@@]23CC[C@@H](N(CCCN4CC[C@@H](O)C4)C(=O)Nc4ccc(F)c(Cl)c4)CC2C3)c1` (stereo partly shown) [drawing 656] the Ki was 1.8 nM.
In the case of `N#Cc1cccc([C@]23CC[C@@H](N(CCN4CC[C@@H](O)C4)C(=O)Nc4ccc(F)c(C(F)(F)F)c4)[C@H]2C3)c1` [drawing 669], the Ki is reported as 7.1 nM.
Work on `N#Cc1cccc([C@]23CC[C@@H](N(CCN4CCCCC4)C(=O)Nc4ccc(F)c(Cl)c4)[C@H]2C3)c1` [drawing 671] yielded a Ki of 4.1 nM.
`CN(C)CCN(C(=O)Nc1ccc(F)c(Cl)c1)[C@@H]1CC[C@]2(c3cccc(C#N)c3)C[C@H]12` [drawing 673] was tested, and the Ki was 14 nM.
With `N#Cc1cccc([C@]23CC[C@@H](N(CCCCN4CCCC4)C(=O)Nc4ccc(F)c(Cl)c4)[C@H]2C3)c1` [drawing 675] the Ki was 3.9 nM.

Source: patent publication US7348328B2, “MCH antagonists for the treatment of obesity” (Schering Corporation, priority 2001, dated 2008)
